Source: ChEMBL document CHEMBL5665443, “Enzyme Inhibitor Single Concentration assay results for EUbOPEN Chemogenomics Library” (2024)

Key:
[1] = molecular target: Methyl-CpG-binding domain protein 4 (Homo sapiens) (UniProt O95243); conditions: Hit No;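 also: MBD4 activity read as fluorescence at 594 nm from cleavage and release of a quenched duplex DNA oligonucleotide, with APE1 coupled to incise the strand and raise turnover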
Description: Inhibition of MBD4 by quantifying inhibition of MBD4-mediated cleavage and dissociation of quenched duplex DNA oligonucleotides, measured as fluorescence at 594 nm. To generate a functional strand incision and increase turn-over this assay is coupled to APE1.

[2] = molecular target: Endonuclease 8-like 1 (Homo sapiens) (UniProt Q96FI4); conditions: Hit No;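 also: fluorescence at 594 nm from quenched duplex DNA oligonucleotides released by NEIL1 cleavage and strand separation, reported as reduction of this enzyme activity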
Description: Inhibition of NEIL1 by quantifying inhibition of NEIL1-mediated cleavage and dissociation of quenched duplex DNA oligonucleotides, measured as fluorescence at 594 nm.

[3] = molecular target: T1, Endonuclease 8-like 2 (Homo sapiens) (UniProt Q969S2); conditions: Compound Concentration 10.0 uM, Hit No;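 also: fluorescence at 594 nm reports NEIL2 cutting and release of a quenched double-stranded DNA oligo substrate, reduced signal read as inhibition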
T1 sequence (whole entry): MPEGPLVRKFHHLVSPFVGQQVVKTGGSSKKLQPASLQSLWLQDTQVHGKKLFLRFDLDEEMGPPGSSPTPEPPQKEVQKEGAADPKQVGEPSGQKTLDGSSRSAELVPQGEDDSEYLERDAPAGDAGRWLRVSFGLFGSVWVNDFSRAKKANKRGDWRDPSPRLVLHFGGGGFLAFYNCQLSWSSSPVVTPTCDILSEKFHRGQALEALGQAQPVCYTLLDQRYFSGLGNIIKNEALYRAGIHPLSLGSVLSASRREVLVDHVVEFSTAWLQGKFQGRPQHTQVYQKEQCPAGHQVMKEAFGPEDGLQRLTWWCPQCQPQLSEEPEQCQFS
Description: Inhibition of NEIL2 by quantifying inhibition of NEIL2-mediated cleavage and dissociation of quenched duplex DNA oligonucleotides, measured as fluorescence at 594 nm.

[4] = molecular target: T2, Endonuclease III-like protein 1 (Homo sapiens) (UniProt P78549); conditions: Hit No;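 also: enzyme assay tracking NTHL1 cutting and release of a quenched double-stranded DNA oligo substrate, read as fluorescence at 594 nm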
T2 sequence (whole entry): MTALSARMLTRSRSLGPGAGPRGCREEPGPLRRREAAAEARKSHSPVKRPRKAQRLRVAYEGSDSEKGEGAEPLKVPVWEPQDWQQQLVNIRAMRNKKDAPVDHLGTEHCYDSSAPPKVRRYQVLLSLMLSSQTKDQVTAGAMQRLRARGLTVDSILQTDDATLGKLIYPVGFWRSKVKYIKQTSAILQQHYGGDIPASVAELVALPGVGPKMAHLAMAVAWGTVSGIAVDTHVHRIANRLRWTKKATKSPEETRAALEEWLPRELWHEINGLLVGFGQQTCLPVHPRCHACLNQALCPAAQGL
Description: Inhibition of NTHL1 by quantifying inhibition of NTHL1-mediated cleavage and dissociation of quenched duplex DNA oligonucleotides, measured as fluorescence at 594 nm.

[5] = molecular target: T3, Single-strand selective monofunctional uracil DNA glycosylase (Homo sapiens) (UniProt Q53HV7); conditions: Hit No;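 also: enzymatic SMUG1 assay coupled with APE1, reading fluorescence at 594 nm released when a quenched double-stranded DNA oligonucleotide substrate is cleaved and separated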
T3 sequence (whole entry): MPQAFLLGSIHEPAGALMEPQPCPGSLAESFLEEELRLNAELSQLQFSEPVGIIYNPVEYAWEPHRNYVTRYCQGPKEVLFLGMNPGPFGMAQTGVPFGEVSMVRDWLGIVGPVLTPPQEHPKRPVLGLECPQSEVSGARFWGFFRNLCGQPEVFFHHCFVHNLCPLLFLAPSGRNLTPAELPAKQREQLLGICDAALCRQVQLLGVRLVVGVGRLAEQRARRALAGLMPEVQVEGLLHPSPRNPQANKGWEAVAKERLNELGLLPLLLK
Description: Inhibition of SMUG1 by quantifying inhibition of SMUG1-mediated cleavage and dissociation of quenched duplex DNA oligonucleotides, measured as fluorescence at 594 nm. To generate a functional strand incision and increase turn-over this assay is coupled to APE1.

[6] = molecular target: G/T mismatch-specific thymine DNA glycosylase (Homo sapiens) (UniProt Q13569); conditions: Hit No;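 also: human TDG cleavage of quenched duplex DNA oligonucleotides coupled to APE1, strand release read as fluorescence at 594 nm, inhibition of TDG activity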
Description: Inhibition of TDG by quantifying inhibition of TDG-mediated cleavage and dissociation of quenched duplex DNA oligonucleotides, measured as fluorescence at 594 nm. To generate a functional strand incision and increase turn-over this assay is coupled to APE1.

[7] = molecular target: Uracil-DNA glycosylase (Homo sapiens) (UniProt P13051); conditions: Hit No;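 also: UNG excision on a quenched double-stranded DNA oligo probe, with APE1 added for strand incision and turnover, read as fluorescence at 594 nm as strands separate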
Description: Inhibition of UNG by quantifying inhibition of UNG-mediated cleavage and dissociation of quenched duplex DNA oligonucleotides, measured as fluorescence at 594 nm. To generate a functional strand incision and increase turn-over this assay is coupled to APE1.

[8] = molecular target: N-glycosylase/DNA lyase (Homo sapiens) (UniProt O15527); conditions: Hit No;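 also: OGG1 cleavage of a quenched duplex DNA oligonucleotide, coupled to APE1 for strand incision, read as fluorescence at 594 nm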
Sequence of N-glycosylase/DNA lyase (Homo sapiens) (O15527 whole entry): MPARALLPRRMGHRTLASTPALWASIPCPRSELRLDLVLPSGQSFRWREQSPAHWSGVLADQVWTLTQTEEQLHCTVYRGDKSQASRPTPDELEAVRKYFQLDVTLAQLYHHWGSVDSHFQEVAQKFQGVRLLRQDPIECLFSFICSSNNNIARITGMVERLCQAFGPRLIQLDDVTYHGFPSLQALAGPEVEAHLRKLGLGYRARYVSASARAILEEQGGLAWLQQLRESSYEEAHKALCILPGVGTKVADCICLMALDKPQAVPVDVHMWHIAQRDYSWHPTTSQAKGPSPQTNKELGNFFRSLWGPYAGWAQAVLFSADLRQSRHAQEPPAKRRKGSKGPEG
Description: Inhibition of OGG1 by quantifying inhibition of OGG1-mediated cleavage and dissociation of quenched duplex DNA oligonucleotides, measured as fluorescence at 594 nm. To generate a functional strand incision and increase turn-over this assay is coupled to APE1.

Sequence of Uracil-DNA glycosylase (Homo sapiens) (P13051 whole entry): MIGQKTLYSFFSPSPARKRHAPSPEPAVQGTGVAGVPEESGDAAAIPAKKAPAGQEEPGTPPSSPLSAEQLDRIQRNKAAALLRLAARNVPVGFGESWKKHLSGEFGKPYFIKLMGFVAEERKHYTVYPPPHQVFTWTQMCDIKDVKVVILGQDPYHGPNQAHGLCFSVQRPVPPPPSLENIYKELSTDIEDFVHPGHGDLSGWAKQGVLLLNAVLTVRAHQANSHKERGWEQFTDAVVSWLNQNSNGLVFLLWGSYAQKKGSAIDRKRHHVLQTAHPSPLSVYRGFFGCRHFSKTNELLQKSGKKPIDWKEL
Sequence of Methyl-CpG-binding domain protein 4 (Homo sapiens) (O95243 whole entry, the tested form may be a part): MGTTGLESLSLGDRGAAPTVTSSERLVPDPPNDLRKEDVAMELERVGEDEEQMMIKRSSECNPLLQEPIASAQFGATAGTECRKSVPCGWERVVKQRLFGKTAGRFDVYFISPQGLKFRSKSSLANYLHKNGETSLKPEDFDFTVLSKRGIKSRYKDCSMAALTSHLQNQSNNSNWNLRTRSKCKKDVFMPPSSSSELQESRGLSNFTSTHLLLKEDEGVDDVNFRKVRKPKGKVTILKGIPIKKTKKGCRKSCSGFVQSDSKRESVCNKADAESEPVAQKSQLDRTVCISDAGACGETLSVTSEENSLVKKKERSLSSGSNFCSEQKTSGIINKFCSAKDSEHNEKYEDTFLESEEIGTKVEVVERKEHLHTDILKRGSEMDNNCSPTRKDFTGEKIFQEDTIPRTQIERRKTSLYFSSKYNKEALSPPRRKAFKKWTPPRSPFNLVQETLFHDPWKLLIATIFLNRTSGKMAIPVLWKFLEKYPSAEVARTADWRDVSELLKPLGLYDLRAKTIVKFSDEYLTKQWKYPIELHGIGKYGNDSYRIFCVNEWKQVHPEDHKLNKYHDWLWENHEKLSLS
Sequence of G/T mismatch-specific thymine DNA glycosylase (Homo sapiens) (Q13569 whole entry): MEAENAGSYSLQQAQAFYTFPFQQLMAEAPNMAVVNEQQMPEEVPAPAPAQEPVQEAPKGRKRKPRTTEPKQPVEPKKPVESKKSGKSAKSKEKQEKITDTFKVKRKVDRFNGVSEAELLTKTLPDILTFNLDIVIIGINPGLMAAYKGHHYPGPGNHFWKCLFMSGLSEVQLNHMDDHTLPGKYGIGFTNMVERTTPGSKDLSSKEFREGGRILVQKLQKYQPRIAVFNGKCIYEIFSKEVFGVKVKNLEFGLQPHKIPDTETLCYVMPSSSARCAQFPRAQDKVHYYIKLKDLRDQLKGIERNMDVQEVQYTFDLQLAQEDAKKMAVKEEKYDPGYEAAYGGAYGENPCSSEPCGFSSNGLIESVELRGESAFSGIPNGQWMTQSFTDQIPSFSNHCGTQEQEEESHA
Sequence of Endonuclease 8-like 1 (Homo sapiens) (Q96FI4 whole entry): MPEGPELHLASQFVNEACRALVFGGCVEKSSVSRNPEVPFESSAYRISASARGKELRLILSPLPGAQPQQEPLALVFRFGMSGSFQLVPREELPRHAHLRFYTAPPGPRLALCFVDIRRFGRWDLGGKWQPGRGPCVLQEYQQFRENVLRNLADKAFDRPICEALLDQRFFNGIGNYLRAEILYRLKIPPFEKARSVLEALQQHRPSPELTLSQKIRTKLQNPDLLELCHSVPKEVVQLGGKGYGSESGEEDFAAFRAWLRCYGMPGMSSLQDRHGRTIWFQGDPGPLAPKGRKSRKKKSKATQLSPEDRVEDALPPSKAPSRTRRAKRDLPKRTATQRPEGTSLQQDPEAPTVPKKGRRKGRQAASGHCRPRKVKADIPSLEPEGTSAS

| SMILES | inhibition ([1]; Compound Concentration 10.0 uM) [%] | inhibition ([2]; Compound Concentration 10.0 uM) [%] | inhibition [3] [%] | inhibition ([4]; Compound Concentration 10.0 uM) [%] | inhibition ([5]; Compound Concentration 10.0 uM) [%] | inhibition ([6]; Compound Concentration 10.0 uM) [%] | inhibition ([7]; Compound Concentration 10.0 uM) [%] | inhibition ([8]; Compound Concentration 10.0 uM) [%] | inhibition ([1]; Compound Concentration 1.0 uM) [%] | inhibition ([2]; Compound Concentration 1.0 uM) [%] | inhibition ([4]; Compound Concentration 1.0 uM) [%] | inhibition ([8]; Compound Concentration 1.0 uM) [%] | inhibition ([5]; Compound Concentration 1.0 uM) [%] | inhibition ([6]; Compound Concentration 1.0 uM) [%] | inhibition ([7]; Compound Concentration 1.0 uM) [%] |
| --- | --- | --- | --- | --- | --- | --- | --- | --- | --- | --- | --- | --- | --- | --- | --- |
| CO[C@@H](C)c1c(Nc2ccc([C@@H](N(C)C(=O)C3CCS(=O)(=O)CC3)C(F)(F)F)cc2)cnc2cc(Cl)nn12 | 93.9 | -6.35 | 0.0213 | -9.83 | 13.4 | 42.7 | 0.795 | – | – | – | – | – | – | – | – |
| CC(C)c1c(NC(=O)Nc2ccc(Cl)cc2)c(=O)n(-c2ccccc2)n1C | 31.2 | 4.99 | -6.97 | 12.9 | -6.14 | -4.69 | – | -7 | – | – | – | – | – | – | – |
| Cn1ncnc1COc1nn2c(-c3c(F)cccc3F)nnc2cc1C1CCC1 | -5.71 | 7.71 | -3.41 | 22.9 | 1.23 | 15.4 | -7.24 | – | – | – | – | – | – | – | – |
| O=C(NCCCn1ccnc1)c1cc2nc(-c3ccccc3)cc(-c3ccccc3)n2n1 | 28.3 | – | -9.67 | -4.57 | 12 | 44.7 | 4.11 | -1.93 | – | – | – | – | – | – | – |
| CC1=C(C(=O)Nc2cc3cn[nH]c3cc2F)C(c2ccc(C(F)(F)F)cc2)CC(=O)N1 (stereo not drawn) | 18 | 4.1 | 3.2 | -2.7 | 22.4 | 34.3 | 7.25 | – | – | – | – | – | – | – | – |
| O=C(NCCS(=O)(=O)c1ccc(C(F)(F)F)cn1)c1ccc(Cl)cc1 | 55.1 | – | 1.3 | -0.63 | 13.1 | 97.2 | 0.131 | -0.41 | – | – | – | – | – | – | – |
| COc1cccc(CNC(=O)c2nc3scc(CN(C)Cc4ccccc4)c3c(=O)[nH]2)c1 | 59.5 | -6.05 | – | -9.83 | 12.8 | 43.2 | 2.11 | 4.36 | – | – | – | – | – | – | – |
| O=C(c1ccc(F)cc1)N1CC(COc2ccc(Br)cc2)(C(=O)O)C1 | – | – | – | – | – | – | – | – | 67.1 | -7.26 | 0.685 | -9.75 | 15.2 | 52.8 | 0.879 |
| Cn1cc(-c2ccc3occ(-c4cccc(-c5ccncc5)c4)c3n2)cn1 | -1.5 | -1.18 | -5.69 | -8.98 | 13.1 | 42.6 | -1.77 | – | – | – | – | – | – | – | – |
| CCCCCCCCCCCCC/C=C/[C@@H](O)[C@@H](N)COP(=O)([O-])OCC[N+](C)(C)C | -8.69 | – | -4.94 | -8.51 | -8.04 | – | -1 | 5.72 | – | – | – | – | – | – | – |
| Cc1n[nH]c2ncc(C(=O)N3CCC[C@H]3c3ccc(Cl)cc3)cc12 | – | – | – | – | – | – | – | – | 9.29 | -3.69 | 7.06 | -6.69 | 8.72 | 31.7 | -1.69 |
| O=C(O)[C@@H]1[C@@H](Cn2nnc3ccccc3c2=O)CC[C@H]1C(=O)c1ccc(OCCC2CCOCC2)cc1 | 57.8 | – | – | -5.23 | 18.6 | 49.2 | 2.54 | 7.75 | – | – | – | – | – | – | – |
| CCOc1cc(N2CCC(O)CC2)ccc1Nc1ncc2c(n1)N(C1CCCC1)CCC(=O)N2C | -5.19 | -5.28 | – | -6.19 | 12.4 | 36.7 | -0.0214 | – | – | – | – | – | – | – | – |
